Data as given in article PMC10223284, “Category-Based Toxicokinetic Evaluations of Data-Poor Per- and Polyfluoroalkyl Substances (PFAS) using Gas Chromatography Coupled with Mass Spectrometry” (Toxics, 2023).
“And” between values parts separate entries of the source, which are not always exact repeats. Equal values may be shown once. Read-outs that look alike come from different tables or passages of the source.

How the values were obtained:
[1] = Abiotic loss in negative controls of the hepatocyte clearance assay (cell-free media, metabolically inactivated hepatocytes); assay type: in vitro ADME; conditions: flag for stability failure in hepatocyte clearance assay controls (1 or Fst = fail, 0 = pass)
Procedure: (§1) The hepatic metabolic stability assay measures the loss of a parent compound over time in a substrate-depletion approach. Briefly, hepatocyte suspensions, after a viability assessment, were diluted in complete William’s medium E (containing dexamethasone and cell maintenance cocktail B) prior to addition to 96-well polypropylene plates containing an equal volume of media spiked with the test compound (1 μM assay concentration; assay cell density = 50,000 cells/100 μL) and maintained at 37 °C with shaking. At each time point, relevant plates were crashed with an equal volume of ice-cold acetonitrile, centrifuged, and supernatant transferred to a new plate prior to storage at <−70 °C until quantitative analysis. Controls, run in parallel, included cell-free (i.e., media only) and metabolically inactivated hepatocytes to evaluate abiotic chemical stability in the aqueous media matrix with and without cellular protein. In preliminary runs, these controls were run at T0 and T240 only. If significant instability was noted, the hepatocyte clearance assay was rerun, including cell-free samples at each time point and metabolically inactivated hepatocytes at selected time points.
Negative controls, including media only and metabolically inactivated hepatocyte controls, were included to monitor abiotic loss (i.e., background clearance) during the assay. Where significant compound loss occurred using the analysis described above, background clearance rates were calculated and used to background-adjust hepatic metabolic clearance rates. Where chemicals were cleared prior to the end of the analysis, at 240 min (T240), the corresponding negative control timepoint was used for background subtraction. Any chemicals displaying a 50% or more abiotic loss at T120 were deemed unstable and were excluded from further analyses.

human plasma [2] = conditions: human, plasma
Procedure: Three replicates were run per experiment, with 4NT included as a reference compound in each to evaluate assay performance. All PFAS and 4NT, prepared at a 3 mM working stock, were added to human plasma to achieve a final, thoroughly mixed assay concentration of 10 μM, incubated at 37 °C for 1 h with shaking. […] After UC, the aqueous fraction (AF; i.e., supernatant devoid of plasma proteins/lipoproteins/fatty acids) was collected and transferred to a new tube. The second aliquot maintained at 37 °C was collected (T5hr). At the relevant time points, each volume of sample was combined with 3 volumes of vigorously mixed ice-cold acetonitrile with the labeled IS and stored for 10 min at −20 °C prior to centrifugation at 12,000× g for 10 min at 4 °C. The supernatant was collected and stored at <−70 °C until quantitative analysis. […] Furthermore, chemical stability in plasma over the assay time course was assessed using the T1hr and T5hr samples.
Percent chemical remaining at the end of the UC assay (T5hr/T1hr) was used to remove unstable chemicals from further evaluation.

human plasma [3] = experiment: Chemical stability in plasma over the UC assay time course (T5hr/T1hr); conditions: for Time 1 hr / Time 1 hr, Run-specific Avg: amount measured in plasma sample at 1 hr; for Time 1 hr / Time 5 hr: replicates A, B, C; for Time 1 hr / Time 1 hr, Run-specific Avg / Time 5 hr / Time 5 hr, Run-specific Avg: unit not given; for Time 1 hr, Run-specific Avg / Time 5 hr, Run-specific Avg: run average; for Time 5 hr / Time 5 hr, Run-specific Avg: amount measured in plasma sample at 5 hr; for PPB_Stab_Fail: flag for stability failure in the plasma protein binding assay (1 = fail, 0 = pass); for Fstable.Med: median fraction stable in plasma, UC assay Level4; for % remaining_PPB: chemical remaining in plasma over the PPB assay time course, NS = no significant loss; for Stability (T5hr/ T1hr), replicates A, B, C: single replicate of one UC run
in vitro = conditions: both, human, plasma
human plasma [4] = experiment: Ultracentrifugation (UC) plasma protein binding assay, fraction unbound in plasma (fup); conditions: for Aqueous Fraction / Aqueous Fraction, Run-specific Avg: amount measured in aqueous fraction after ultracentrifugation, unit not given; for Aqueous Fraction: replicates A, B, C; for Aqueous Fraction, Run-specific Avg: run average; for Fup.Med: median fraction unbound in plasma; for Fup.Med / Fup.point: UC assay Level4; for Fup.point: point estimate of fraction unbound in plasma; for Fraction Unbound (fu), replicates A, B, C: single replicate of one UC run (aqueous fraction / Time 5 hr)
[5] = Hepatic metabolic stability (hepatocyte clearance) assay, substrate depletion; assay type: in vitro ADME, human; conditions: both sexes, human, s9, Clint.1.Med
From the text: William’s Medium E (Gibco A1217601), dexamethasone, and cell maintenance cocktail B (Gibco CM4000) were obtained from Thermo Fisher Scientific (Waltham, MA, USA). Hepatosure OptiThaw media (P/N K8000; Lot No. 18–1–0322) was obtained from Sekisui Xenotech (Kansas City, KS, USA). Trypan blue solution (P/N 1450021) was obtained from Bio-Rad (Hercules, CA, USA). Pooled human cryopreserved primary hepatocyte suspensions were obtained from BioIVT (Westbury, NY, USA) and produced using nontransplantable tissue. The human 50-donor pool (mixed gender; Cat X0080005; Lot MYC), selected from BioIVT’s commercially available, prepooled lots, was selected following review of vendor-generated metabolic characterization information. Pooled, mixed-sex human plasma from de-identified donors was obtained from a commercial vendor that operates a U.S. Food and Drug Administration-licensed and inspected donor center (BioIVT bioivt.com (accessed 12 May 2023). Donors comprised five males and five females and ranged from 20 to 50 years of age. Plasma collected using anticoagulant K2EDTA was sterile-filtered ([…]) and stored at <−70 °C until use.
as §1
To process samples for quantitative analysis, samples were thawed and mixed. An aliquot of sample was removed and diluted in acetonitrile (1 part sample plus 9 parts acetonitrile) containing the relevant ISs selected for the PFAS being analyzed (See Table S2). The target at instrument concentration of each IS was 10 pg/μL.
The curves were generated using concentration/response ratios from the target analyte and IS, with either linear or quadratic regression models. The model and weighting, if necessary, were chosen to most accurately reflect the response of each compound and was evaluated by recalculating the individual calibration points using the curve. An acceptable model reflected an accuracy of ±30% of the theoretical value.
Hepatic metabolic clearance data were plotted in semi-log format (ln concentration vs. time) with three replicates at each time point, as previously described. […] The equations described below are used to calculate the chemical half-life (T½) and intrinsic in vitro clearance (Clin vitro) with units of μL/(min × million hepatocytes). In Equation (3), 2000 is a scalar used to adjust the assay cell number up to be consistent with units of 1 million cells in the Clint equation.
Negative controls, including media only and metabolically inactivated hepatocyte controls, were included to monitor abiotic loss (i.e., background clearance) during the assay. Where significant compound loss occurred using the analysis described above, background clearance rates were calculated and used to background-adjust hepatic metabolic clearance rates. […]

[6] = mean T5hr/T1hr ratio in plasma over all replicates/runs
[7] = Fraction Unbound (fu), Run-specific Avg, average of one UC run
[8] = Fraction Unbound (fu), individual replicates A, B, C of the UC run named in c8
[9] = Mean Fu, mean fraction unbound in human plasma over all UC replicates/runs
[10] = Mean fu, fraction unbound in human plasma, ultracentrifugation, some values based on eLOQ
[11] = average of one UC run (run date in line above)
[12] = mean T5hr/T1hr ratio over all replicates and runs, plasma
[13] = Fraction Unbound (fu), Run-specific Avg, average of one UC run (run date in line above)
[14] = Fraction Unbound (fu), replicates A, B, C, single replicate of one UC run (aqueous fraction / Time 5 hr)
[15] = Mean Fu, mean fraction unbound over all replicates and runs, UC assay, human plasma

SMILES | Hep_Stab_Fail [1] | Time 1 hr (human plasma [3]) | Time 1 hr, Run-specific Avg (human plasma [3]) | Time 5 hr (human plasma [3]) | Time 5 hr, Run-specific Avg (human plasma [3]) | Stability (T5hr/ T1hr), Run-specific Avg (human plasma [3]; average of one UC run) | PPB_Stab_Fail (human plasma [3]) | Mean Stability (human plasma [3]; [6]) | Fstable.Med (human plasma [3]) | fraction unbound (in vitro; [7]) | fraction unbound (in vitro; [8]) | fraction unbound (in vitro; [9]) | fraction unbound (in vitro; [10]) | Aqueous Fraction (human plasma [4]) | Aqueous Fraction, Run-specific Avg (human plasma [4]) | Fup.Med (human plasma [4]) | Fup.point (human plasma [4]) | % remaining_PPB (human plasma [3]) [%] | Stability (T5hr/ T1hr), Run-specific Avg (human plasma [3]; [11]) | Mean Stability (human plasma [3]; [12]) | also measured
C=CC(=O)OCCC(F)(F)C(F)(F)C(F)(F)C(F)(F)C(F)(F)C(F)(F)C(F)(F)C(F)(F)F [8:2 Fluorotelomer acrylate] | 1 | – | – | – | – | – | – | – | – | – | – | – | – | – | – | – | – | – | – | – | % remaining_PPB (human plasma [2]): 0%; PPB_Stab_Fail (human plasma [2]): 1
FC(F)(I)C(F)(F)C(F)(F)C(F)(F)I [Perfluoro-1,4-diiodobutane] | 1 | 1436.94 and 1194.41 and 1213.84 | 1281.73 | 860.037 and 995.998 and 977.671 | 928.02 | 0.724 | 0 | 0.740 | 0.11 | 0.00546 | 0.00698 | 0.00546 | 0.0055 | 6.005 and 3.594 and 5.646 | 5.08 | 0.00723 | 0.00533 | – | – | – | –
CCNc1nc(NC(C)C)nc(SC)n1 [Ametryn, reference compound] | – | – | – | – | – | – | – | – | – | – | – | – | – | – | – | – | – | – | – | – | hepatocyte CLint at 1 μM [5]: 14.7 µL/min/1e6 cells
C=C(C)C(=O)OCCC(F)(F)C(F)(F)C(F)(F)C(F)(F)C(F)(C(F)(F)F)C(F)(F)F [(Perfluoro-5-methylhexyl)ethyl 2-methylprop-2-enoate] | 1 | – | – | – | – | – | – | – | 0.43 | – | – | – | 0.0603 | – | – | 4.30E-06 | 0.0603 | 63.6 | – | – | –
O=C(CC(=O)C(F)(F)C(F)(F)C(F)(F)F)c1cccs1 [(Perfluorobutyryl)-2-thenoylmethane] | Fst | – | – | – | – | – | 0 | – | 0.959 | – | – | – | 0.006 | – | – | 0.00944 | 0.00576 | 100 | 1.277 | 1.278 | Stability (T5hr/ T1hr), replicates A, B, C (human plasma [3]): 1.693 and 1.2724 and 0.868; fraction unbound (in vitro; [13]): 0.00714; fraction unbound (in vitro; [14]): 0.00885; fraction unbound (in vitro; [15]): 0.007; Fraction Unbound (fu), replicates A, B, C (human plasma [4]): 0.006374 and 0.006195
C=C(C)C(=O)OCC(F)(F)C(F)(F)C(F)(F)C(F)F [1H,1H,5H-Perfluoropentyl methacrylate] | 1 | 1599.93 and 1543.59 and 1278.91 | 1474.15 | 75.2443 and 72.767 and 69.0294 | 74.01 | 0.050 | 1 | 0.050 | 0.00623 | 0.25 | – | 0.248 | – | 25.8202 and 12.2631 and 16.0467 | 18.04 | 0.267 | 0.249 | 0.01 | – | – | –
FC(F)(I)C(F)(F)C(F)(F)C(F)(F)C(F)(F)C(F)(F)I [1,6-Diiodoperfluorohexane] | 1 | 8774.08 and 7745.84 and 7383.58 | 7967.83 | 5893.98 and 5567.71 and 5583.03 | 5730.84 | 0.719 | 0 | 0.718 | 0.577 | 0.0256 | 0.0161 | – | 0.026 | 94.9667 and 176.609 and 162.022 | 144.53 | 0.295 | 0.267 | 72 | 0.687 | 0.685 | Stability (T5hr/ T1hr), replicates A, B, C (human plasma [3]): 0.7185 and 0.686 and 0.6511; fraction unbound (in vitro; [13]): 0.36; fraction unbound (in vitro; [15]): 0.361; Fraction Unbound (fu), replicates A, B, C (human plasma [4]): 0.5494 and 0.308 and 0.227
FC(F)(Br)C(F)(F)C(F)(F)C(F)(F)C(F)(F)C(F)(F)Br [1,6-Dibromododecafluorohexane] | 1 | 8781.60 and 9238.06 and 11600.01 | 9873.23 | 4002.39 and 3732.26 and 4390.36 | 3867.32 | 0.392 | 0 | 0.415 | 0.312 | 0.00422 | 0.00424 | 0.00422 | 0.004 | 16.97 | 16.97 | 1.78E-09 | 0 | 40 | – | – | fup (human plasma [4]; human plasma, 10 μM, ultracentrifugation, 37 °C): 0.004
OCCCC(F)(F)C(F)(F)C(F)(F)C(F)(F)C(F)(F)C(F)(F)C(F)(F)C(F)(F)F [3-(Perfluorooctyl)propanol] | 1 | – | – | – | – | – | 0 | – | 0.272 | – | – | – | 0.0357 | – | – | 0.0348 | 0.0352 | – | 0.894 | 0.893 | Stability (T5hr/ T1hr), replicates A, B, C (human plasma [3]): 0.9156 and 0.9452 and 0.8196; fraction unbound (in vitro; [14]): 0.0277; fraction unbound (in vitro; [15]): 0.036; Fraction Unbound (fu), replicates A, B, C (human plasma [4]): 0.03475 and 0.04477
